Numbers after ± are expanded uncertainties.
What was measured:
[1] = 101.33 kPa, Liquid; for viscosity: Capillary tube (Ostwald / Ubbelohde) method
[2] = refractive index (Na D-line) (dimensionless); conditions: 298.15 K; 101.33 kPa; Liquid; Standard Abbe refractometry
[3] = 298.15 K, Linear variable-path acoustic interferometer
[4] = 308.15 K, Linear variable-path acoustic interferometer
[5] = 318.15 K, Linear variable-path acoustic interferometer
[6] = 328.15 K, Linear variable-path acoustic interferometer
[7] = 338.15 K, Linear variable-path acoustic interferometer

SMILES	mass density ([1]; 298.15 K)	speed of sound ([1]; 298.15 K)	viscosity ([1]; 298.15 K)	mass density ([1]; 308.15 K)	speed of sound ([1]; 308.15 K)	viscosity ([1]; 308.15 K)	mass density ([1]; 318.15 K)	speed of sound ([1]; 318.15 K)	viscosity ([1]; 318.15 K)	mass density ([1]; 328.15 K)	speed of sound ([1]; 328.15 K)	viscosity ([1]; 328.15 K)	mass density ([1]; 338.15 K)	viscosity ([1]; 338.15 K)	refractive index [2]	speed of sound [1, 3]	speed of sound [1, 4]	speed of sound [1, 5]	speed of sound [1, 6]	speed of sound [1, 7]	further results
CC(O)C(C)O (stereo not given) [2,3-butanediol]	998.57 ± 2 kg/m3	1470.2 ± 7.9 m/s	44.68 ± 0.21 mPa·s	992.11 ± 2 kg/m3	1440 ± 7.8 m/s	22.95 ± 0.12 mPa·s	984.13 ± 2 kg/m3	1412.2 ± 7.7 m/s	12.8 ± 0.088 mPa·s	970.58 ± 2 kg/m3	1392 ± 7.6 m/s	7.722 ± 0.074 mPa·s	961.97 ± 2 kg/m3	5.195 ± 0.069 mPa·s	1.4366 ± 0.0004						speed of sound ([1]; 338.15 K): 1373.9 ± 7.5 m/s
O [water]			0.89 ± 0.063 mPa·s			0.719 ± 0.063 mPa·s			0.596 ± 0.063 mPa·s			0.503 ± 0.063 mPa·s		0.438 ± 0.063 mPa·s	1.3323 ± 0.0004	1498 ± 2.1 m/s	1519 ± 2.2 m/s	1535.1 ± 2.2 m/s	1545 ± 2.2 m/s	1551 ± 2.2 m/s	
OCCCO [propan-1,3-diol]	1049.99 ± 0.49 kg/m3		40.07 ± 0.19 mPa·s	1043.71 ± 0.47 kg/m3		27.25 ± 0.14 mPa·s	1037.37 ± 0.45 kg/m3		17.01 ± 0.1 mPa·s	1030.96 ± 0.43 kg/m3		11.28 ± 0.084 mPa·s	1024.47 ± 0.42 kg/m3	7.939 ± 0.075 mPa·s	1.4386 ± 0.0004	1636.1 ± 2.3 m/s	1616 ± 2.3 m/s	1599.2 ± 2.2 m/s	1575.9 ± 2.2 m/s	1557 ± 2.2 m/s	
OCCCCO [1,4-butanediol]	1012.57 ± 0.45 kg/m3	1605.1 ± 6.5 m/s	72.62 ± 0.5 mPa·s	1006.4 ± 0.43 kg/m3	1588 ± 6.5 m/s	44.87 ± 0.21 mPa·s	1000.76 ± 0.41 kg/m3	1570.8 ± 6.4 m/s	29.07 ± 0.15 mPa·s		1552.1 ± 6.4 m/s	19.48 ± 0.11 mPa·s	987.93 ± 0.45 kg/m3	13.49 ± 0.09 mPa·s	1.4442 ± 0.0004						speed of sound ([1]; 338.15 K): 1529 ± 6.3 m/s
CC(O)CCO (stereo not given) [1,3-butanediol]	1000.03 ± 0.35 kg/m3	1522.1 ± 6.3 m/s	97.25 ± 1.1 mPa·s	994.22 ± 0.37 kg/m3	1492.1 ± 6.2 m/s	52.5 ± 0.15 mPa·s	988.7 ± 0.38 kg/m3	1472 ± 6.1 m/s	30.49 ± 0.15 mPa·s	979.18 ± 0.4 kg/m3	1453.9 ± 6.1 m/s	18.91 ± 0.11 mPa·s	971.91 ± 0.42 kg/m3	12.28 ± 0.087 mPa·s	1.439 ± 0.0004						speed of sound ([1]; 338.15 K): 1436.1 ± 6 m/s
CC(O)CO (stereo not given) [1,2-propanediol]	1032.77 ± 0.44 kg/m3		43.43 ± 0.21 mPa·s	1025.4 ± 0.42 kg/m3		24.25 ± 0.13 mPa·s	1017.32 ± 0.4 kg/m3			1009.56 ± 0.38 kg/m3		9.691 ± 0.079 mPa·s	1001.81 ± 0.36 kg/m3	7.044 ± 0.073 mPa·s	1.4314 ± 0.0004	1500.1 ± 2.2 m/s	1488.9 ± 2.2 m/s	1438.1 ± 2.2 m/s	1401 ± 2.2 m/s	1382.8 ± 2.1 m/s	
CCC(O)CO (stereo not given) [1,2-butanediol]	998.86 ± 0.36 kg/m3		57.46 ± 0.2 mPa·s	991.42 ± 0.37 kg/m3		30.18 ± 0.15 mPa·s	983.93 ± 0.39 kg/m3		17.41 ± 0.1 mPa·s	976.09 ± 0.41 kg/m3		10.9 ± 0.083 mPa·s	968.11 ± 0.43 kg/m3	7.257 ± 0.073 mPa·s	1.4374 ± 0.0004	1452 ± 2.2 m/s	1423.8 ± 2.2 m/s	1396.2 ± 2.2 m/s	1387 ± 2.1 m/s	1366 ± 2.1 m/s	

— the NIST ThermoML archive (doi:10.1021/je0340755)
